Like-named read-outs stand apart in the source and are kept apart here.
Legend:
[1] = test system: HCV genotype 1a (H77 strain) replicon in HUH-7 cells; experiment: HCV replicon luciferase reporter assay, genotype 1a; assay type: cell-based; settings: Hepatitis C virus, Huh-7, 72 h, 3 days incubation, read-out: LE_1a (EC50, range)
Summary of the method: (§1)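 Replicon inhibition for both genotypes was measured as Renilla luciferase signal (EnduRen, 7.5 μM final, 2 h) after 3-day, 37° C exposure of replicon-bearing HUH-7 cells in 4% FCS DMEM, 0.5% DMSO. The 1b construct carries S1179I; the 1a H77 construct carries P1496L and S2204I. Twenty-point, 3-fold dilutions were fitted four-parametrically for EC50, and CC50 was taken from multiplexed Cell Titer-Blue.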

[2] = test system: HCV genotype 1b (Con1) replicon in HUH-7 cells; experiment: HCV replicon luciferase reporter assay, genotype 1b; assay type: cell-based; settings: Hepatitis C virus, Huh-7, 72 h, 3 days incubation, read-out: LE_1b (EC50, range)
Summary of the method: as §1

[3] = HCV genotype 1a replicon luciferase assay, range class
[4] = HCV genotype 1b replicon luciferase assay, range class
[5] = HCV genotype 1a replicon luciferase
[6] = HCV genotype 1b replicon luciferase

Structure (SMILES) | EC50 [1, 3] [nM] | EC50 [2, 4] [nM] | EC50 [1, 5] [nM] | EC50 [2, 6] [nM] | further results
COc1ccc2c(O[C@@H]3C[C@H]4C(=O)N[C@]5(C(=O)NS(=O)(=O)C6(C)CC6)C[C@H]5/C=C\CC[C@@H](C)C[C@@H](C)[C@H](NC(=O)OC(C)(C)C(F)(F)F)C(=O)N4C3)nc(-c3ccc(OC(C)C)c(F)c3)cc2c1 [Compound 3078, 1,1,1-trifluoro-2-methylpropan-2-yl((2R,6S,7R,9R,13aS,14aR,16aS,Z)-2-((3-(3-fluoro-4-isopropoxyphenyl)-6-methoxyisoquinolin-1-yl)oxy)-7,9-dimethyl-14a-(((1-methylcyclopropyl)sulfonyl)carbamoyl)-5,16-dioxo-1,2,3,5,6,7,8,9,10,11,13a,14,14a,15,16,16a-hexadecahydrocyclopropa[e]pyrrolo[1,2-a][1,4]diazacyclopentadecin-6-yl)carbamate] | < 5.46 | < 5.46 | – | – | –
COCCOc1cc2c(Cl)cccc2c(O[C@@H]2C[C@H]3C(=O)N[C@]4(C(=O)NS(=O)(=O)C5(C)CC5)C[C@H]4/C=C\CC[C@H](C)C[C@@H](C)[C@H](NC(=O)OC(C)(C)C(F)(F)F)C(=O)N3C2)n1 [Compound 1113, 1,1,1-trifluoro-2-methylpropan-2-yl((2R,6S,7R,9S,13aS,14aR,16aS,Z)-2-((5-chloro-3-(2-methoxyethoxyl)isoquinolin-1-yl)oxy)-7,9-dimethyl-14a-(((1-methylcyclopropyl)sulfonyl)carbamoyl)-5,16-dioxo-1,2,3,5,6,7,8,9,10,11,13a,14,14a,15,16,16a-hexadecahydrocyclopropa[e]pyrrolo[1,2-a][1,4]diazacyclopentadecin-6-yl)carbamate] | < 5.46 | < 5.46 | – | – | –
COc1ccc2c(O[C@@H]3C[C@H]4C(=O)N[C@]5(C(=O)NS(=O)(=O)C6CC6)C[C@H]5/C=C\CC[C@H](C)C[C@@H](C)[C@H](NC(=O)O[C@@H]5C[C@@H]6C[C@@H]6C5)C(=O)N4C3)nc(-c3ccc(OC(C)C)c(F)c3)cc2c1 [Compound 3069, (1R,3r,5S)-bicyclo[3.1.0]hexan-3-yl((2R,6S,7R,9S,13aS,14aR,16aS,Z)-14a-((cyclopropylsulfonyl)carbamoyl)-2-((3-(3-fluoro-4-isopropoxyphenyl)-6-methoxyisoquinolin-1-yl)oxy)-7,9-dimethyl-5,16-dioxo-1,2,3,5,6,7,8,9,10,11,13a,14,14a,15,16,16a-hexadecahydrocyclopropa[e]pyrrolo[1,2-a][1,4]diazacyclopentadecin-6-yl)carbamate] | 4.82 to 103 | < 5.46 | – | – | –
COc1cnc(O[C@@H]2C[C@H]3C(=O)N[C@]4(C(=O)NS(=O)(=O)C5(CF)CC5)C[C@H]4/C=C\CC[C@@H](C)C[C@@H](C)[C@H](NC(=O)OC4(C(F)(F)F)CCOCC4)C(=O)N3C2)c2ccccc12 [Compound 1048, 4-(trifluoromethyl)tetrahydro-2H-pyran-4-yl((2R,6S,7R,9R,13aS,14aR,16aS,Z)-14a-(((1-(fluoromethyl)cyclopropyl)sulfonyl)carbamoyl)-2-((4-methoxyisoquinolin-1-yl)oxy)-7,9-dimethyl-5,16-dioxo-1,2,3,5,6,7,8,9,10,11,13a,14,14a,15,16,16a-hexadecahydrocyclopropa[e]pyrrolo[1,2-a][1,4]diazacyclopentadecin-6-yl)carbamate] | < 5.46 | < 5.46 | – | – | –
CC(C)n1nc(O[C@@H]2C[C@H]3C(=O)N[C@]4(C(=O)NS(=O)(=O)C5CC5)C[C@H]4/C=C\CC[C@@H](C)C[C@@H](C)[C@H](NC(=O)OC(C)(C)C(F)(F)F)C(=O)N3C2)c2ccccc2c1=O [Compound 1010, 1,1,1-trifluoro-2-methylpropan-2-yl((2R,6S,7R,9R,13aS,14aR,16aS,Z)-14a-((cyclopropylsulfonyl)carbamoyl)-2-((3-isopropyl-4-oxo-3,4-dihydrophthalazin-1-yl)oxy)-7,9-dimethyl-5,16-dioxo-1,2,3,5,6,7,8,9,10,11,13a,14,14a,15,16,16a-hexadecahydrocyclopropa[e]pyrrolo[1,2-a][1,4]diazacyclopentadecin-6-yl)carbamate] | 4.82 to 103 | 4.82 to 103 | – | – | –
CC[C@@H]1C[C@H](C)CC/C=C\[C@@H]2C[C@@]2(C(=O)NS(=O)(=O)C2CC2)NC(=O)[C@@H]2C[C@@H](Oc3nccc4c5c(ccc34)N(C)CCO5)CN2C(=O)[C@H]1NC(=O)OC(C)(C)C(F)(F)F [Compound 5310, 1,1,1-trifluoro-2-methylpropan-2-yl((2R,6S,7R,9R,13aS,14aR,16aS,Z)-14a-((cyclopropylsulfonyl)carbamoyl)-7-ethyl-9-methyl-2-((4-methyl-3,4-dihydro-2H-[1,4]oxazino[2,3-f]isoquinolin-7-yl)oxy)-5,16-dioxo-1,2,3,5,6,7,8,9,10,11,13a,14,14a,15,16,16a-hexadecahydrocyclopropa[e]pyrrolo[1,2-a][1,4]diazacyclopentadecin-6-yl)carbamate] | – | – | < 5.46 | < 5.46 | –
C[C@@H]1CC/C=C\[C@@H]2C[C@@]2(C(=O)NS(=O)(=O)C2CC2)NC(=O)[C@@H]2C[C@@H](Oc3nccc4c5c(ccc34)OC(F)(F)O5)CN2C(=O)[C@@H](NC(=O)OC(C)(C)C)[C@H](C)C1 [Compound 5257, tert-butyl ((2R,6S,7R,9R,13aS,14aR,16aS,Z)-14a-((cyclopropylsulfonyl)carbamoyl)-2-((2,2-difluoro-[1,3]dioxolo[4,5-f]isoquinolin-6-yl)oxy)-7,9-dimethyl-5,16-dioxo-1,2,3,5,6,7,8,9,10,11,13a,14,14a,15,16,16a-hexadecahydrocyclopropa[e]pyrrolo[1,2-a][1,4]diazacyclopentadecin-6-yl)carbamate] | – | – | < 5.46 | < 5.46 | –
[2H]C([2H])([2H])C(OC(=O)N[C@@H]1C(=O)N2C[C@H](Oc3ncc(OC)c4ccccc34)C[C@H]2C(=O)N[C@]2(C(=O)NS(=O)(=O)C3CC3)C[C@H]2/C=C\CC[C@@H](C)C[C@H]1CC)(C([2H])([2H])[2H])C(F)(F)F [Compound 5433] | – | – | 0.51 to 1 | 0.1 to 0.5 | –
CCOc1cc2ccccc2c(O[C@@H]2C[C@H]3C(=O)N[C@]4(C(=O)NS(=O)(=O)C5(C)CC5)C[C@H]4/C=C\CC[C@@H](C)C[C@@H](C)[C@H](NC(=O)OC(C)(C)C(F)(F)F)C(=O)N3C2)n1 [Compound 6100, 1,1,1-trifluoro-2-methylpropan-2-yl((2R,6S,7R,9R,13aS,14aR,16aS,Z)-2-((3-ethoxyisoquinolin-1-yl)oxy)-7,9-dimethyl-14a-(((1-methylcyclopropyl)sulfonyl)carbamoyl)-5,16-dioxo-1,2,3,5,6,7,8,9,10,11,13a,14,14a,15,16,16a-hexadecahydrocyclopropa[e]pyrrolo[1,2-a][1,4]diazacyclopentadecin-6-yl)carbamate] | – | – | 1.01 to 5 | 0.1 to 0.5 | –
CC[C@@H]1C[C@H](C)CC/C=C\[C@@H]2C[C@@]2(C(=O)NS(=O)(=O)C2CC2)NC(=O)[C@@H]2C[C@@H](Oc3cnnc4cc(OC)ccc34)CN2C(=O)[C@H]1NC(=O)OC(C)(C)C(F)(F)F [Compound 4327] | – | – | – | – | EC50 ([1]; GETYPE1A, HCV genotype 1a replicon luciferase): 5.01 to 35 nM; EC50 ([2]; GETYPE1B, HCV genotype 1b replicon luciferase): 5.01 to 35 nM

From patent US9499550B2 (BRISTOL-MYERS SQUIBB COMPANY, priority 2012, dated 2016)
